For data set [1], the system named is lung adenocarcinoma A549 cells. Briefly: MTT antiproliferative assay, A549. It counts as cell-based, human. The following applies: Homo sapiens, A549; MTT assay, 24 h exposure, triplicate; read-out: IC50 A549. The protocol: (§1) The SGC-7901, A549 and HT-1080 cell lines were purchased from the American Type Culture Collection (ATCC, Manassas, VA, USA). […] Briefly, approximately 3 × 10^4 cells were seeded in a 96-well plate. After 24 h of incubation at 37 °C, cells were exposed to compounds of differing concentrations for 24 h. After treatment, cells were washed with 1X PBS followed by addition of 100 µL of 0.05% MTT reagent to each well, followed by incubation for 4 h at 37 °C. After incubation, the supernatant from each well was carefully removed and the formazan crystals were dissolved in 100 µL of DMSO. The colour density was measured spectrophotometrically at 490 nm using a microplate reader (SpectraMax Plus384, Molecular Devices Corp., USA). The data were calculated and plotted as percent viability compared to control.
as §1
A general note: Tetrazolium assays rely on reduction of a dye to a coloured formazan, in cell work by metabolically active cells.

The test system of data set [2] is fibrosarcoma HT-1080 cells. The data set can be described thus: MTT antiproliferative assay, HT-1080. The note with it: Homo sapiens, HT-1080; MTT assay, 24 h exposure, triplicate; read-out: IC50 HT-1080. It counts as cell-based, human. The protocol: as §1, §1
Data set [3] concerns the target colchicine-binding site on tubulin (Sus scrofa, UniProt P02554). Briefly: Competitive tubulin-binding assay (colchicine). The following applies: 5.0 µM colchicine; compound 1.6, 5.0, 15.0 µM. The protocol: To confirm whether these designed compounds could bind to the colchicine site on tubulin, compound 6i was investigated for its ability of competitive inhibition of colchicine binding[39],[40]. CA-4 and paclitaxel were used as a positive and a negative control, respectively.
Figure 6 Competitive binding of 6i to colchicine-binding site on tubulin.
For the colchicine competitive binding assay, tubulin was co-incubated with indicated concentrations of MPSP-001 and paclitaxel at 37 °C for 1 h. Then colchicine was added to a final concentration of 5 μmol L^−1. Fluorescence was determined using a Hitachi F-2500 spectrofluorometer (Tokyo, Japan) at the excitation wavelength of 365 nm and the emission wavelength of 435 nm. Blank values (buffer alone) as the background were subtracted from all samples. […] Paclitaxel, not binding in the colchicine site of tubulin, was added as a negative control. The experiments were repeated at least three times.
(5). Competitive tubulin-binding assay. For the colchicine competitive binding assay, tubulin was co-incubated with indicated concentrations of MPSP-001 and paclitaxel at 37 °C for 1 h. Then colchicine was added to a final concentration of 5 μmol L^−1. Fluorescence was determined using a Hitachi F-2500 spectrofluorometer (Tokyo, Japan) at the excitation wavelength of 365 nm and the emission wavelength of 435 nm. […]

In data set [4] the test system is gastric adenocarcinoma SGC-7901 cells. The data set can be described thus: MTT antiproliferative assay, SGC-7901. It counts as cell-based, human. The following applies: Homo sapiens, SGC-7901; MTT assay, 24 h exposure, triplicate; read-out: IC50 SGC-7901. The protocol: as §1, §1
Data set [5] deals with SGC-7901 cells. Briefly: Cell cycle analysis by flow cytometry. It counts as cell-based, human. The note with it: for cell cycle arrest: SGC-7901, 12 h, 6i 0.011, 0.022, 0.044 µM, CA-4 0.022 µM. The protocol: Thus, the effect of compound 6i on the cell cycle progression of the SGC-7901 cells was investigated by flow cytometry analysis (Fig. 5). […] Compound 6i could arrest cell cycle distribution at the G2/M phase in a dose-dependent manner.
Figure 5 Compound 6i affects the cell cycle progression in SGC-7901 cells.
Cell cycle analysis studies were performed by following a previously reported method. […] The cells were collected by centrifugation, washed with PBS and fixed in ice-cold 70% ethanol. The fixed cells were harvested by centrifugation and resuspended in 500 µl of PBS containing 1 mg/mL RNase. After 30 min of incubation at 37 °C, the cells were stained with […] propidium iodide (PI) at 4 °C in the dark for 30 min. The samples were then analyzed by FACScan flow cytometry (Becton-Dickinson, Franklin Lakes, NJ, USA). The experiments were repeated at least three times.
The cells were collected by centrifugation, washed with PBS and fixed in ice-cold 70% ethanol. The fixed cells were harvested by centrifugation and resuspended in 500 µl of PBS containing 1 mg/mL RNase. After 30 min of incubation at 37°C, the cells were stained with […] propidium iodide (PI) at 4°C in the dark for 30 min. The samples were then analyzed by FACScan flow cytometry (Becton-Dickinson, Franklin Lakes, NJ, USA). The experiments were repeated at least three times.
Figure S1 Compound 6i induced G2/M phase arrest in a time-dependent manner. SGC-7901 cells were treated with 6i (0.022 µM) for time 12, 24, 36, 48 and 60 h, then stained with PI and subjected to flow cytometric analysis.
(In general: In flow cytometry, cells or beads pass a laser one at a time.)

The test system of data set [6] is HCT116. Set-up: method as in Org. Biomol. Chem. 2005, 3, 2657-2660. The note with it: ref Org. Biomol. Chem. 2005, 3, 2657-2660; cited from earlier work.

Entries after “also recorded” stand apart in the source; their conditions may differ.

By IC50 is commonly meant the concentration that gives 50% inhibition. As to `COc1ccc(/C=C\c2cc(OC)c(OC)c(OC)c2)cc1O` [CA-4, Combretastatin A-4, reference compound], the IC50 in data set [1] is 9 nM; in data set [2], 13 nM; in data set [4], 11 nM; in data set [6], 16 nM. Also, the “competition with colchicine: fluorescence of colchicine-tubulin complex” value in data set [3] is on record as “fluorescence of a colchicine-tubulin complex was reduced”. In addition, the cell cycle arrest entry in data set [5] was “potent cell cycle arrests in G2/M phase”.

For orientation: melting point means the temperature, or range, at which the solid turns liquid. Take `COc1cccc(-c2nnc3n2N=C(c2ccc(OC)c(N)c2)CS3)c1` [Compound 6i, 3-(3-Methoxyphenyl)-6-(3-amino-4-methoxyphenyl)-7H-[1,2,4]triazolo[3,4-b][1,3,4]thiadiazine]: the melting point fell in the range of 138 to 140 °C. Moreover, in data set [1], the IC50 worked out at 15 nM. In data set [2], the IC50 is 14 nM. Also, in data set [3], the “competition with colchicine: fluorescence of colchicine-tubulin complex” value is recorded as “fluorescence of a colchicine-tubulin complex was reduced”. Also, the IC50 in data set [4] is 11 nM. Besides, the “apoptosis after G2/M arrest (sub-G1)” value in data set [5] (SGC-7901, 6i 0.022 µM, 12-60 h) is on record as “sub-G1 phase increase from 24 to 60 h; also recorded: cause subsequent apoptosis after G2/M arrest”. Besides, the cell cycle arrest result in data set [5] is “induced cell arrest in G2/M phase from 0 to 12 h; also recorded: potent cell cycle arrests in G2/M phase”.

The values above are taken from paper PMC5607265, “Design, synthesis and structure-activity relationship of 3,6-diaryl-7H-[1,2,4]triazolo[3,4-b][1,3,4]thiadiazines as novel tubulin inhibitors” (Scientific Reports, 2017).
